Reference: PubChem BioAssay AID1259411 (Chemical Carcinogenesis Research Information System (CCRIS), 2018)
Calls of active or inactive are those of the source. No rule for the calls is given here.

Test system: rodent carcinogenicity bioassays, tumor incidence
Test: CCRIS carcinogenicity studies
Method in brief: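 NCI-built, expert-reviewed records of carcinogenicity and related test outcomes (mutagenicity, tumor promotion/inhibition) compiled from published and report sources, historical span 1985-2011, not updated.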

Q: With `CCCCN(N=O)C(CCC)OC(C)=O` (centres undefined) as the molecule, how does the carcinogen call (Species: RAT, Strain/Sex: F344/FEMALE, Route: SUBCUTANEOUS, Dose: 38 UMOL/KG IN OLIVE OIL 1/WK FOR 10 WK, Tumor Site: Type of Lesion: INJECTION SITE: MALIGNANT FIBROUS HISTIOCYTOMA) read?
A: Its carcinogen call is “active; positive”.

Q: What about the carcinogen call (Species: RAT, Strain/Sex: F344/MALE, Route: SUBCUTANEOUS, Dose: 38 UMOL/KG IN OLIVE OIL 1/WK FOR 10 WK, Tumor Site: Type of Lesion: INJECTION SITE: MALIGNANT FIBROUS HISTIOCYTOMA, LUNG: ADENOMA) of the same molecule?
A: Its carcinogen call is “active; positive”.

Q: For `CCC1=C(C)CN(C(=O)NCCc2ccc(S(=O)(=O)NC(=O)NC3CCC(C)CC3)cc2)C1=O` (centres undefined), which carcinogen call (Species: DOG, Strain/Sex: BEAGLE/FEMALE, Route: ORAL, Dose: 0, 0.8, 16, 320 MG/KG BW IN GELATIN CAPSULE 1/D 7 D/WK FOR 12 MO (STUDY DURATION: 15 MO), Dose: 0, 0.8, 16, 320 MG/KG BW IN GELATIN CAPSULE 1/D 7 D/WK FOR 12 MO (STUDY DURATION: 15 MO)) is on record?
A: Its carcinogen call is “inactive; negative”.

Q: What about the carcinogen call (Species: DOG, Strain/Sex: BEAGLE/MALE, Route: ORAL, Dose: 0, 0.8, 16, 320 MG/KG BW IN GELATIN CAPSULE 1/D 7 D/WK FOR 12 MO (STUDY DURATION: 13 MO), Dose: 0, 0.8, 16, 320 MG/KG BW IN GELATIN CAPSULE 1/D 7 D/WK FOR 12 MO (STUDY DURATION: 13 MO)) of the same molecule?
A: Its carcinogen call is “inactive; negative”.

Q: What about the carcinogen call (Species: RAT, Strain/Sex: WISTAR/FEMALE, Route: ORAL, Dose: 0, 20, 1000, 50000 PPM IN DIET FOR 12 MO (STUDY DURATION: 13 MO), Dose: 0, 20, 1000, 50000 PPM IN DIET FOR 12 MO (STUDY DURATION: 13 MO)) of the same molecule?
A: The carcinogen call was “inactive; negative”.

Q: What about the carcinogen call (Species: RAT, Strain/Sex: WISTAR/MALE, Route: ORAL, Dose: 0, 20, 1000, 50000 PPM IN DIET FOR 12 MO (STUDY DURATION: 13 MO), Dose: 0, 20, 1000, 50000 PPM IN DIET FOR 12 MO (STUDY DURATION: 13 MO)) of the same molecule?
A: Its carcinogen call is “inactive; negative”.

Q: Which carcinogen call (Species: MOUSE, Strain/Sex: B6C3F1/FEMALE, Route: DERMAL, Dose: 0, 188, 375 MG/KG IN ETHANOL APPLIED TO SUBSCAPULAR SKIN 5 D/WK FOR 39-42 WK (STUDY DURATION: 42 WK), Dose: 0, 188, 375 MG/KG IN ETHANOL APPLIED TO SUBSCAPULAR SKIN 5 D/WK FOR 39-42 WK (STUDY DURATION: 42 WK), Tumor Site: Type of Lesion: SKIN: SQUAMOUS CELL PAPILLOMA, FORESTOMACH: SQUAMOUS CELL PAPILLOMA, SQUAMOUS CELL CARCINOMA) does the source give for `OCC(Br)CBr` (centres undefined) here?
A: The carcinogen call was “active; positive”.

Q: What about the carcinogen call (Species: MOUSE, Strain/Sex: B6C3F1/MALE, Route: DERMAL, Dose: 0, 188, 375 MG/KG IN ETHANOL APPLIED TO SUBSCAPULAR SKIN 5 D/WK FOR 36-39 WK (STUDY DURATION: 42 WK), Dose: 0, 188, 375 MG/KG IN ETHANOL APPLIED TO SUBSCAPULAR SKIN 5 D/WK FOR 36-39 WK (STUDY DURATION: 42 WK), Tumor Site: Type of Lesion: SKIN: SQUAMOUS CELL PAPILLOMA, FORESTOMACH: SQUAMOUS CELL PAPILLOMA, LUNG: ALVEOLAR/BRONCHIOLAR ADENOMA, LIVER: HEPATOCE, Tumor Site: Type of Lesion: SKIN: SQUAMOUS CELL PAPILLOMA, FORESTOMACH: SQUAMOUS CELL PAPILLOMA, LUNG: ALVEOLAR/BRONCHIOLAR ADENOMA, LIVER: HEPATOCE) of the same molecule?
A: The carcinogen call was “active; positive”.

Q: What about the carcinogen call (Species: RAT, Strain/Sex: F344/FEMALE, Route: DERMAL, Dose: 0, 188, 375 MG/KG IN ETHANOL APPLIED TO SUBSCAPULAR SKIN 5 D/WK FOR 52-55 WK (STUDY DURATION: 56 WK), Dose: 0, 188, 375 MG/KG IN ETHANOL APPLIED TO SUBSCAPULAR SKIN 5 D/WK FOR 52-55 WK (STUDY DURATION: 56 WK), Tumor Site: Type of Lesion: SKIN: SQUAMOUS CELL PAPILLOMA OR CARCINOMA, BASAL CELL TUMOR, KERATOACANTHOMA, ORAL MUCOSA: SQUAMOUS CELL PAPILLOMA, SQU) of the same molecule?
A: The carcinogen call was “active; positive”.

Q: And the carcinogen call (Species: RAT, Strain/Sex: F344/MALE, Route: DERMAL, Dose: 0, 188, 375 MG/KG IN ETHANOL APPLIED TO SUBSCAPULAR SKIN 5 D/WK FOR 48-51 WK (STUDY DURATION: 56 WK), Dose: 0, 188, 375 MG/KG IN ETHANOL APPLIED TO SUBSCAPULAR SKIN 5 D/WK FOR 48-51 WK (STUDY DURATION: 56 WK), Tumor Site: Type of Lesion: SKIN: SQUAMOUS CELL PAPILLOMA OR CARCINOMA, BASAL CELL TUMOR, SEBACEOUS ADENOMA, KERATOACANTHOMA, ORAL MUCOSA: SQUAMOUS)?
A: Its carcinogen call is “active; positive”.

Q: With `Cc1cc2c(c3ccc4ccccc4c13)C=C[C@@H](O)[C@@H]2O` as the molecule, how does the carcinogen call (Species: MOUSE, Strain/Sex: ICR/FEMALE, Route: INTRAPERITONEAL, Dose: 8 NMOL/5 µL DMSO ON DAY 1, 16 NMOL/10 µL ON DAY 8, AND 32 NMOL/20 µL ON DAY 15 OF AGE (STUDY DURATION: 35 WK), Tumor Site: Type of Lesion: LUNG: TUMORS, LIVER: TUMORS) read?
A: Its carcinogen call is “active; positive”.

Q: And the carcinogen call (Species: MOUSE, Strain/Sex: ICR/MALE, Route: INTRAPERITONEAL, Dose: 8 NMOL/5 µL DMSO ON DAY 1, 16 NMOL/10 µL ON DAY 8, AND 32 NMOL/20 µL ON DAY 15 OF AGE (STUDY DURATION: 35 WK), Tumor Site: Type of Lesion: LUNG: TUMORS)?
A: Its carcinogen call is “active; positive”.

Q: For `O=C1C=CC(=O)C(c2ccccc2)=C1`, which carcinogen call (Species: MOUSE, Strain/Sex: CD-1/FEMALE, Route: DERMAL, Dose: 0, 1 MG IN DMSO 5/D WK FOR 40 WK (STUDY DURATION: 40 WK)) is on record?
A: Its carcinogen call is “inactive; negative”.

Q: What about the carcinogen call (Species: RAT, Strain/Sex: F344/FEMALE, Route: INTRAVESICULAR, Dose: 0, 1% IN 0.2 ML SALINE 2/WK FOR 5 WK (STUDY DURATION: 36 WK)) of the same molecule?
A: Its carcinogen call is “inactive; negative”.

Q: `CC(=O)Nc1ccc(CC(=O)O)cc1` was tested. Which carcinogen call (Species: MOUSE, Strain/Sex: B6C3F1/FEMALE, Route: ORAL, Dose: 0;300, 1000, 3000 MG/KG IN DIET FOR 78 WK (STUDY DURATION: 78 WK), Dose: 0;300, 1000, 3000 MG/KG IN DIET FOR 78 WK (STUDY DURATION: 78 WK)) did it give?
A: The carcinogen call was “inactive; negative”.

Q: What about the carcinogen call (Species: MOUSE, Strain/Sex: B6C3F1/MALE, Route: ORAL, Dose: 0, 300, 1000, 3000 MG/KG IN DIET FOR 78 WK (STUDY DURATION: 78 WK), Dose: 0, 300, 1000, 3000 MG/KG IN DIET FOR 78 WK (STUDY DURATION: 78 WK)) of the same molecule?
A: The carcinogen call was “inactive; negative”.

Q: And the carcinogen call (Species: RAT, Strain/Sex: F344/FEMALE, Route: ORAL, Dose: 0, 300, 1000, 3000 MG/KG/D IN DIET FOR 104 WK (STUDY DURATION: 104 WK), Dose: 0, 300, 1000, 3000 MG/KG/D IN DIET FOR 104 WK (STUDY DURATION: 104 WK))?
A: The carcinogen call was “inactive; negative”.

Q: What about the carcinogen call (Species: RAT, Strain/Sex: F344/MALE, Route: ORAL, Dose: 0, 300, 1000, 3000 MG/KG/D IN DIET FOR 104 WK (STUDY DURATION: 104 WK), Dose: 0, 300, 1000, 3000 MG/KG/D IN DIET FOR 104 WK (STUDY DURATION: 104 WK)) of the same molecule?
A: The carcinogen call was “inactive; negative”.

Q: `CC(=O)OCc1c2ccccc2c2ccc3cccc4ccc1c2c43` was tested. Which carcinogen call (Species: MOUSE, Strain/Sex: B6C3F1/MALE, Route: INTRAPERITONEAL, Dose: 0, 0.0025, 0.005 UMOL/G ONCE AT 12 DAYS OF AGE (STUDY DURATION: 10 MO), Dose: 0, 0.0025, 0.005 UMOL/G ONCE AT 12 DAYS OF AGE (STUDY DURATION: 10 MO), Tumor Site: Type of Lesion: LIVER: HEPATOMA) did it give?
A: The carcinogen call was “active; positive”.
